The record followed here is patent publication US5661148A, “Pyrrolo[2,3-d]pyrimidine derivatives, process for producing the same and pharmaceutical preparation comprising the same as active ingredient” (Teijin Limited, priority 1989, dated 1997).

Assay [1] relates to hypoxemia model animals. Description: Effect on partial pressure value of gases in arterial blood, injection system, Method B (acetic acid induced respiratory insufficiency). It counts as in vivo, rat (Male Wister strain). The following applies: continuous i.v. 0.1 mg/kg/min., 10 min.; for Activity for Decreasing PaCO2: increment PaCO2: PaCO2 after minus before administration; for Activity for Increasing PaO2: increment PaO2: PaO2 after minus before administration. The procedure: Effect on Partial Pressure Value of Gases in Arterial Blood (Injection system) <Method B> Male Wister strain rats (body about 300 g) were anesthetized with halothane inhalant, and then 2.0% acetic acid was […] injected at 0.6 ml/kg to induce a respiratory insufficiency. The animals were intra-peritoneally anesthetized with urethane-α-chloralose, and a cannula was inserted into the femoral artery. After the hypoxemic state (PaO2 : 60-70 mmHg) was observed a compound in accordance with the present invention (test substance) was continuously intravenously injected into these hypoxemia model animals (0.1 mg/kg/min., 10 min.), and then a partial pressure value of gases (PaO2, PaCO2) in arterial blood was immediately determined.

Assay [2] concerns hypoxemia animals. Description: Effect on partial pressure value of gases in arterial blood, oral administration system, Method B (3 days after acetic acid). It counts as in vivo, rat (Male wistar strain). The following applies: 60 min. after administration. How it is done: Effect on Partial Pressure Value of Gases in Arterial Blood (Oral Administration System)
Male wistar strain rats (body weight about 350 g) were anesthetized with halothane inhalant, and then 2.0% acetic acid were intratrachealy injected at 0.6 ml/kg body to induce a hypoxemia state. In 3 days after injection with 2.0% acetic acid, rats fasted overnight were anesthetized with halothane inhalant, and a cannula inserted into the femoral artery. After these hypoxemia animals (PaO2 : 60-80 mmHg) were recovered from the anesthesia, a compound in accordance with the present invention (test substance, 10 or 30 mg/kg) was orally administered to the animals. At 60 min. after the administration, the partial pressure value of gases (PaO2, PaCO2) in arterial blood was determined.

For assay [3], the system named is hypoxemia model animals. Description: Effect on partial pressure value of gases in arterial blood, injection system, Method A (carbon powder induced hypoxemia). It counts as in vivo, rat (Male Wister strain). The following applies: continuous i.v. 0.1 mg/kg/min., 10 min.; for Activity for Decreasing PaCO2: increment PaCO2: PaCO2 after minus before administration; for Activity for Increasing PaO2: increment PaO2: PaO2 after minus before administration. How it is done:
Effect on Partial Pressure Value of Gases in Arterial Blood (Injection system)
Male Wister strain rats (body weight about 300 g) were anesthetized intra-peritoneally with urethane, and a cannula was inserted into the respiratory tract and the femoral artery, respectively. A suspension (30-100 μm, 10 mg/ml) of carbon powder in a corn oil was intratrachealy injected to induce a hypoxemia state (PaO2; 50-60 mmHg). A compound in accordance with the present invention was continuously intravenously injected into these hypoxemia model animals (0.1 mg/kg/min., 10 min.), and then a partial pressure value of gases (PaO2, PaCO2) in arterial blood was immediately determined.

In assay [4] the test system is hypoxemia state rats. The assay is described as follows: Effect on partial pressure value of gases in arterial blood, oral administration system, Method A (acetic acid induced hypoxemia, about 60 min). It counts as in vivo, rat (Male Wistar strain). The following applies: 60 min. after administration. The procedure: Effect on Partial Pressure Value of Gases in Arterial Blood (Oral Administration System) Method A Male Wistar strain rats (body weight about 250 g) fasted overnight were anesthetized with halothane inhalant, and a cannula then inserted into the femoral artery. After the animals recovered from the anesthesia, they were again anesthetized with halothane inhalant, and then 2.0% acetic acid was […] injected at 0.8 ml/kg to induce a hypoxemia state. After the hypoxemic state (PaO2 :60-80 mmHg) was observed over about 60 min., a compound in accordance with the present invention (test substance, 10 or 30 mg/kg) was orally administered to the animals. Then 60 min. after the administration, the partial pressure value of gases (PaO2, PaCO2) in arterial blood was determined.

On to `C=CCNc1nc(N(C)CCc2ccccc2)c2ccn(C)c2n1` [Compound 167], for which the “Activity for Decreasing PaCO2: increment PaCO2” value (“Activity for Decreasing PaCO2” below) in assay [1] was -6.6 mmHg.

Take `C=CCNc1nc(N[C@H]2CC[C@H](OCCOCC)CC2)c2ccn(C)c2n1` [Compound 187]: in assay [1], the “Activity for Decreasing PaCO2” value was -14.7 mmHg and the “Activity for Increasing PaO2: increment PaO2” value (“Activity for Increasing PaO2” for short) is recorded as “+13.7 mmHg”. In assay [2] (10 mg/kg), the “Activity for Decreasing PaCO2” value is reported as “+6.9 mmHg” and the “Activity for Increasing PaO2” value is listed as “+16.0 mmHg”.

With `C=CCNc1nc(NCc2cccs2)c2ccn(C)c2n1` [Compound 174], in assay [1], the “Activity for Decreasing PaCO2” value is given as -2.9 mmHg and the “Activity for Increasing PaO2” value is “+5.8 mmHg”.

With `C=CCNc1nc(N[C@H]2CC[C@H](OC)CC2)c2ccn(C)c2n1` [Compound 186], the “Activity for Decreasing PaCO2” value is listed as -15.4 mmHg in assay [1] and -5.3 mmHg in assay [2] (10 mg/kg). Further, the “Activity for Increasing PaO2” value is on record as “+12.3 mmHg” in assay [1] and “+14.9 mmHg” in assay [2] (10 mg/kg).

As to `C=CCNc1nc(N2CCC(OC)CC2)c2ccn(C)c2n1` [Compound 180], in assay [1], the “Activity for Decreasing PaCO2” value is -0.5 mmHg and the “Activity for Increasing PaO2” value is reported as “+6.5 mmHg”.

Take `C=CCNc1nc(N2C(C)CCCC2C)c2ccn(C)c2n1` (stereo not drawn) [Compound 183]: in assay [1], the “Activity for Decreasing PaCO2” value is on record as -4.6 mmHg and the “Activity for Increasing PaO2” value is “+10.7 mmHg”.

On to `C=CCNc1nc(N[C@H]2CC[C@@H](OC)CC2)c2ccn(C)c2n1` [Compound 185], for which, in assay [1], the “Activity for Decreasing PaCO2” value is -6.0 mmHg and the “Activity for Increasing PaO2” value is “+11.7 mmHg”.

As for `C=CCNc1nc(NC(C)(C)C)c2ccn(C)c2n1` [Compound 178], in assay [1], the “Activity for Decreasing PaCO2” value is reported as -16.4 mmHg and the “Activity for Increasing PaO2” value was “+16.4 mmHg”. Besides, in assay [2] (10 mg/kg), the “Activity for Decreasing PaCO2” value is listed as -6.6 mmHg and the “Activity for Increasing PaO2” value was “+17.0 mmHg”.

Consider `C=CCNc1nc(NC(C)C)c2ccn(C)c2n1` [Compound 176], for which, in assay [1], the “Activity for Decreasing PaCO2” value was -14.8 mmHg and the “Activity for Increasing PaO2” value is “+22.2 mmHg”. Besides, in assay [2] (10 mg/kg), the “Activity for Decreasing PaCO2” value is -5.4 mmHg and the “Activity for Increasing PaO2” value is given as “+11.6 mmHg”.

In the case of `C=CCNc1nc(NCC2CCCO2)c2ccn(C)c2n1` (stereo not drawn) [Compound 179], in assay [1], the “Activity for Decreasing PaCO2” value is “+2.4 mmHg” and the “Activity for Increasing PaO2” value is listed as “+8.5 mmHg”.

Consider `C=CCNc1nc(N2CCCCC2C)c2ccn(C)c2n1` (stereo not drawn) [Compound 182], for which, in assay [2] (30 mg/kg), the “Activity for Decreasing PaCO2” value is -2.2 mmHg and the “Activity for Increasing PaO2” value was “+3.3 mmHg”.

As to `C=CCNc1nc(NCCc2ccc(OC)cc2)c2ccn(C)c2n1` [Compound 175], in assay [1], the “Activity for Decreasing PaCO2” value is -13.1 mmHg and the “Activity for Increasing PaO2” value was “+15.2 mmHg”.

With `C=CCNc1nc(NC(COC)COC)c2ccn(C)c2n1` [Compound 184], in assay [1], the “Activity for Decreasing PaCO2” value was -0.7 mmHg and the “Activity for Increasing PaO2” value was “+7.8 mmHg”.

With `C=CCNc1nc(N2CCN(C(c3ccc(F)cc3)c3ccc(F)cc3)CC2)c2ccn(C)c2n1` [Compound 133], in assay [3], the “Activity for Decreasing PaCO2” value is -0.6 mmHg and the “Activity for Increasing PaO2” value is reported as “+6.9 mmHg”.

Consider `C=CCNc1nc(N2CCOCC2)c2ccn(C)c2n1` [Compound 124], for which the “Activity for Decreasing PaCO2” value is listed as -4.0 mmHg in assay [1] and -2.5 mmHg in assay [2] (30 mg/kg). For the same molecule, the results for the “Activity for Increasing PaO2” value in assay [1] and in assay [2] (30 mg/kg) were “+5.7 mmHg” and “+8.0 mmHg”, respectively.

As to `C=CCNc1nc(N(C)[C@H]2CC[C@H](OC)CC2)c2ccn(C)c2n1` [Compound 189], in assay [1], the “Activity for Decreasing PaCO2” value was -6.0 mmHg and the “Activity for Increasing PaO2” value is “+7.3 mmHg”.

As to `C=CCNc1nc(NC(C)c2ccccc2)c2ccn(C)c2n1.Cl` (racemic) [Compound 156, (±)-2-allylamino-7-methyl-4-(1-phenylethylamino)-7H-pyrrolo[2,3-d]pyrimidine hydrochloride], the “Activity for Decreasing PaCO2” value in assay [1] is -9.1 mmHg. Also, in assay [4] (30 mg/kg), the “Activity for Decreasing PaCO2” value was -8.1 mmHg and the “Activity for Increasing PaO2” value is “+7.8 mmHg”.

Consider `C=CCNc1nc(N2CCC(OC(C)=O)CC2)c2ccn(C)c2n1` [Compound 119], for which, in assay [3], the “Activity for Decreasing PaCO2” value is -2.6 mmHg and the “Activity for Increasing PaO2” value is “+7.1 mmHg”.

With `C=CCNc1nc(N2CCN(C(c3ccc(F)cc3)c3ccc(F)cc3)CC2)c2ccn(CC=C)c2n1` [Compound 143], in assay [3], the “Activity for Decreasing PaCO2” value is given as “+1.1 mmHg” and the “Activity for Increasing PaO2” value is recorded as “+5.0 mmHg”.

On to `C=CCNc1nc(N(C)C)c2ccn(C)c2n1` [Compound 165], for which the “Activity for Decreasing PaCO2” value in assay [1] is “+1.1 mmHg”; in assay [4] (30 mg/kg), -3.4 mmHg. In addition, the “Activity for Increasing PaO2” value in assay [1] is “+7.9 mmHg”; in assay [4] (30 mg/kg), “+8.5 mmHg”.

`C=CCNc1nc(N(CCOCC)CCOCC)c2ccn(C)c2n1` [Compound 181]: in assay [1], the “Activity for Decreasing PaCO2” value is given as “+1.2 mmHg” and the “Activity for Increasing PaO2” value is given as “+6.4 mmHg”.

As to `C=CCNc1nc(NCc2ccco2)c2ccn(C)c2n1` [Compound 172], in assay [1], the “Activity for Decreasing PaCO2” value is -2.8 mmHg and the “Activity for Increasing PaO2” value is given as “+12.3 mmHg”.

For the molecule `C=CCNc1nc(NCCCc2ccco2)c2ccn(C)c2n1` [Compound 173], in assay [1], the “Activity for Decreasing PaCO2” value was -13.1 mmHg and the “Activity for Increasing PaO2” value is “+12.0 mmHg”. Also, in assay [4] (10 mg/kg), the “Activity for Decreasing PaCO2” value was -3.7 mmHg and the “Activity for Increasing PaO2” value was “+4.2 mmHg”.
